The text below walks through data of publication PMC5584254, “Identification of novel small molecule Beclin 1 mimetics activating autophagy” (Oncotarget, 2017).

The structures appear in SMILES notation. Where a name gives a salt, the structure may show the parent alone. Read-outs that look alike come from different tables or passages of the source.

Assay [1] concerns the target T1, Bcl-xL-Beclin 1 complex (Homo sapiens, UniProt Q07817).
T1 construct: made in house
The experiment in a line: FP-based high-throughput screening, primary screen. To be noted: first screen; 40 μM compound, 2.5 μM Bcl-xL, 400 nM 20-mer. Type of assay: binding. The source says:
Next, we optimized the FP competitive binding assay in a 384-well microplate format and carried out a small-scale HTS using a small library, which contains 6580 compounds from Prestwick, Microsource and our in-house CMLD library. Then, the FP assay was optimized and applied in screening the larger Chembridge library consisting of 43736 compounds. HTS cascades are shown in Supplementary Figure 1A–1B. […] All chemical structures can be found on the PubChem website (http://pubchem.ncbi.nlm.nih.gov/).
(§1) Then the plates were read by Envision (Perkin Elmer, Waltham, MA). […] The hits were selected from library stocks and reconfirmed in a concentration response FP assay (6 doses ranging from 5 μM to 160 μM or 8 doses ranging from 0.5 μM to 60 μM).

Assay [2] has as its target T1, Bcl-xL-Beclin 1 complex. The experiment in a line: Concentration response FP reconfirmation of HTS hits. Type of assay: binding. To be noted: for inhibition at 5 µM: read-out: Dose-response (% Inhibition) 5 μM; for inhibition at 10 µM: read-out: Dose-response (% Inhibition) 10 μM; for inhibition at 20 µM: read-out: Dose-response (% Inhibition) 20 μM; for inhibition at 40 µM: read-out: Dose-response (% Inhibition) 40 μM; for inhibition at 80 µM: read-out: Dose-response (% Inhibition) 80 μM; for inhibition at 160 µM: read-out: Dose-response (% Inhibition) 160 μM. The protocol:
as §1

T1 sequence (Q07817 whole entry, one chain of several): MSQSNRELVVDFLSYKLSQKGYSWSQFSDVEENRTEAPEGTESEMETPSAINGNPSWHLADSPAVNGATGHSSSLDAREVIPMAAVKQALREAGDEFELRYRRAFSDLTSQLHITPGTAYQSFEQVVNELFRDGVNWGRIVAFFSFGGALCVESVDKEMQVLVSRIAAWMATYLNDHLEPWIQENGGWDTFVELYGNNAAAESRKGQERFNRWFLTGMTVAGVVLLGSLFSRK

For the compound `O=C1C=C2CC3(O)COc4cc(O)ccc4C3=C2C=C1O` (stereo not drawn) [Compound A01, BRAZILEIN], the “Primary Screen mP” value in assay [1] worked out at 96.0 mP. Further, the inhibition at 40 µM came to 31% in assay [1] and 35.7% in assay [2] (40 μM, hits of first screen). The inhibition at 5 µM in assay [2] (5 μM, hits of first screen) turned out to be 8%. In assay [2] (10 μM, hits of first screen), the inhibition at 10 µM came out at 16.9%. In assay [2] (20 μM, hits of first screen), the inhibition at 20 µM was 23%. The inhibition at 80 µM in assay [2] (80 μM, hits of first screen) was 57.8%. The inhibition at 160 µM in assay [2] (160 μM, hits of first screen) turned out to be 74.8%.

Turning to `CC(C)=CCCC1(C)C=Cc2c(O)c3c(c(CC=C(C)C)c2O1)OC12C(=CCCC1C(C)(C)O[C@@]2(C/C=C(\C)C(=O)O)C(=O)O)C3=O` (stereo partly drawn) [Compound A02, GARCINOLIC ACID], in assay [1], the “Primary Screen mP” value came out at 124.0 mP and the inhibition at 40 µM stood at 11.8%. Also, the inhibition at 5 µM in assay [2] (5 μM, hits of first screen) was found to be 2.5%. Moreover, the inhibition at 10 µM in assay [2] (10 μM, hits of first screen) came to 3.3%. Moreover, the inhibition at 20 µM in assay [2] (20 μM, hits of first screen) turned out to be 3.6%. Besides, in assay [2] (40 μM, hits of first screen), the inhibition at 40 µM turned out to be 7.5%. The inhibition at 80 µM in assay [2] (80 μM, hits of first screen) was found to be 18.1%. Also, the inhibition at 160 µM in assay [2] (160 μM, hits of first screen) came to 22%.

Regarding `O=C1c2cccc(O)c2C(=O)c2c(O)cccc21` [Compound A03, DANTHRON], in assay [1], the “Primary Screen mP” value worked out at 126.4 mP and the inhibition at 40 µM came out at 9.62%. In assay [2] (5 μM, hits of first screen), the inhibition at 5 µM was -1.2%. Further, the inhibition at 10 µM in assay [2] (10 μM, hits of first screen) is 1.4%. Further, in assay [2] (20 μM, hits of first screen), the inhibition at 20 µM came out at 4.8%. In addition, in assay [2] (40 μM, hits of first screen), the inhibition at 40 µM is 4.9%. Moreover, the inhibition at 80 µM in assay [2] (80 μM, hits of first screen) was 8.7%. Moreover, the inhibition at 160 µM in assay [2] (160 μM, hits of first screen) came out at 19.7%.

Consider `CCCCCc1c2c(cc(O)c1C(=O)O)OC(=O)c1c(cc(OC)cc1C(=O)CCCC)O2` [Compound A04, LOBARIC ACID], for which, in assay [1], the “Primary Screen mP” value was 129.2 mP and the inhibition at 40 µM amounted to 7.13%. For the same compound, the inhibition at 5 µM in assay [2] (5 μM, hits of first screen) was 1.4%. The inhibition at 10 µM in assay [2] (10 μM, hits of first screen) stood at 2.3%. The inhibition at 20 µM in assay [2] (20 μM, hits of first screen) was 2%. Further, the inhibition at 40 µM in assay [2] (40 μM, hits of first screen) stood at 3.2%. The inhibition at 80 µM in assay [2] (80 μM, hits of first screen) stood at 10.2%. Further, in assay [2] (160 μM, hits of first screen), the inhibition at 160 µM stood at 13.7%.

For `C[n+]1cc2c3c(ccc2c2ccc4cc5c(cc4c21)OCO5)OCO3` [Compound A05, SANGUINARINE SULFATE], in assay [1], the “Primary Screen mP” value came out at 130.6 mP and the inhibition at 40 µM was determined as 6.61%. For the same compound, in assay [2], the inhibition at 5 µM was -1.4%, the inhibition at 10 µM was -0.2%, the inhibition at 20 µM was 2% and the inhibition at 40 µM stood at 8.4%. Moreover, in assay [2], the inhibition at 80 µM was determined as 20.6% and the inhibition at 160 µM came to 31.1%.

For the compound `CCCCC(CC)CCC(CC(C)C)OS(=O)(=O)O` (stereo not drawn) [Compound A06, SODIUM TETRADECYL SULFATE], in assay [1], the “Primary Screen mP” value came to 121.5 mP and the inhibition at 40 µM is 9.56%. Also, in assay [2] (5 μM, hits of first screen), the inhibition at 5 µM was -7.3%. Also, the inhibition at 10 µM in assay [2] (10 μM, hits of first screen) is -3.8%. Also, the inhibition at 20 µM in assay [2] (20 μM, hits of first screen) is -1%. In assay [2] (40 μM, hits of first screen), the inhibition at 40 µM worked out at 2.6%. Besides, the inhibition at 80 µM in assay [2] (80 μM, hits of first screen) was 15.4%. For the same compound, the inhibition at 160 µM in assay [2] (160 μM, hits of first screen) came to 24.4%.

As to `CN(C)c1ccc(C(=C2C=CC(=[N+](C)C)C=C2)c2ccc(N(C)C)cc2)cc1` [Compound A08, GENTIAN VIOLET], the “Primary Screen mP” value in assay [1] came to 123.0 mP. For the same compound, the inhibition at 40 µM in assay [1] came to 11.7%; in assay [2] (40 μM, hits of first screen), 6.6%. The inhibition at 5 µM in assay [2] (5 μM, hits of first screen) came out at 1.9%. Besides, the inhibition at 10 µM in assay [2] (10 μM, hits of first screen) worked out at 3.7%. Moreover, the inhibition at 20 µM in assay [2] (20 μM, hits of first screen) turned out to be 5.8%. For the same compound, the inhibition at 80 µM in assay [2] (80 μM, hits of first screen) is 21.2%. The inhibition at 160 µM in assay [2] (160 μM, hits of first screen) turned out to be 22.7%.

For `COC(=O)CC[C@@H](C)[C@H]1CC[C@H]2[C@@H]3[C@H](O)C[C@@H]4C[C@H](O)CC[C@]4(C)[C@H]3C[C@H](O)[C@]12C` [Compound A09, CHOLIC ACID, METHYL ESTER], in assay [1], the “Primary Screen mP” value was 127.0 mP and the inhibition at 40 µM was 9.59%. For the same compound, the inhibition at 5 µM in assay [2] (5 μM, hits of first screen) amounted to 1.6%. In addition, the inhibition at 10 µM in assay [2] (10 μM, hits of first screen) was 1.5%. The inhibition at 20 µM in assay [2] (20 μM, hits of first screen) worked out at 1.7%. Besides, in assay [2] (40 μM, hits of first screen), the inhibition at 40 µM was determined as 4.2%. Also, in assay [2] (80 μM, hits of first screen), the inhibition at 80 µM is 9.3%. Besides, the inhibition at 160 µM in assay [2] (160 μM, hits of first screen) was found to be 13.2%.

For `COC(=O)Nc1nc2ccc(Sc3ccccc3)cc2[nH]1` [Compound A10, FENBENDAZOLE], in assay [1], the “Primary Screen mP” value came to 128.0 mP and the inhibition at 40 µM worked out at 8.47%. Besides, the inhibition at 5 µM in assay [2] (5 μM, hits of first screen) was -3.4%. The inhibition at 10 µM in assay [2] (10 μM, hits of first screen) is 2.3%. Moreover, the inhibition at 20 µM in assay [2] (20 μM, hits of first screen) came to 0.2%. Further, the inhibition at 40 µM in assay [2] (40 μM, hits of first screen) is -0.1%. The inhibition at 80 µM in assay [2] (80 μM, hits of first screen) was -0.4%. Besides, in assay [2] (160 μM, hits of first screen), the inhibition at 160 µM worked out at 8.8%.
